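Dose response: 5 concentrations. Exposure: 48 h. Format: 96-well plates. Endpoint: linear interpolation; highest concentration if not reached. GI50 marks 50% less growth.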 Active and inactive are the calls of the source. Rule as the data show it: active = GI50 up to about 1.1 µM and inactive = higher.
Key:
Experiment in all cases: DTP human tumour cell line panel, 48 h
786-0 = test system: 786-0
A498 = test system: A498
A549 = test system: A549
ACHN = test system: ACHN
CCRF-CEM = test system: CCRF-CEM
COLO 205 = test system: COLO 205
DLD-1 = test system: DLD-1
DMS-114 = test system: DMS-114
DMS-273 = test system: DMS-273
EKVX = test system: EKVX
HCC 2998 = test system: HCC 2998
HCT-116 = test system: HCT-116
HCT-15 = test system: HCT-15
HL-60 = test system: HL-60
HOP-18 = test system: HOP-18
HOP-62 = test system: HOP-62
HOP-92 = test system: HOP-92
HT-29 = test system: HT-29
IGROV-1 = test system: IGROV-1
K562 = test system: K562
KM-20L2 = test system: KM-20L2
LXFL 529 = test system: LXFL 529
M14 = test system: M14
M19-MEL = test system: M19-MEL
MOLT-4 = test system: MOLT-4
Malme-3M = test system: Malme-3M
NCI-H226 = test system: NCI-H226
NCI-H23 = test system: NCI-H23
NCI-H522 = test system: NCI-H522
OVCAR-4 = test system: OVCAR-4
OVCAR-8 = test system: OVCAR-8
RPMI-8226 = test system: RPMI-8226
RXF 393 = test system: RXF 393
SF-268 = test system: SF-268
SF-295 = test system: SF-295
SF-539 = test system: SF-539
SK-MEL-28 = test system: SK-MEL-28
SK-MEL-5 = test system: SK-MEL-5
SK-OV-3 = test system: SK-OV-3
SN12C = test system: SN12C
SNB-19 = test system: SNB-19
SNB-75 = test system: SNB-75
SNB-78 = test system: SNB-78
SR = test system: SR
SW-620 = test system: SW-620
U-251 = test system: U-251
UACC-257 = test system: UACC-257
UACC-62 = test system: UACC-62
UO-31 = test system: UO-31
BT-549 = test system: BT-549
CAKI-1 = test system: CAKI-1
DU-145 = test system: DU-145
Hs-578T = test system: Hs-578T
KM12 = test system: KM12
LOX IMVI = test system: LOX IMVI
MCF7 = test system: MCF7
MDA-MB-231 = test system: MDA-MB-231
MDA-MB-435 = test system: MDA-MB-435
MDA-N = test system: MDA-N
NCI-H460 = test system: NCI-H460
NCI/ADR-RES = test system: NCI/ADR-RES
OVCAR-3 = test system: OVCAR-3
OVCAR-5 = test system: OVCAR-5
SK-MEL-2 = test system: SK-MEL-2
T47D = test system: T47D
XF498 = test system: XF498

SMILES: CCCCCCCC(=O)OC[C@@H](C[As](=O)(O)O)OC(=O)CCCCCCC
- GI50 (786-0): 12.1 µM (inactive)
- GI50 (A498): 11.2 µM (inactive)
- GI50 (A549): 3.73 µM (inactive)
- GI50 (ACHN): 12.7 µM (inactive)
- GI50 (CCRF-CEM): 1.88 µM (inactive)
- GI50 (COLO 205): 17.8 µM (inactive)
- GI50 (DLD-1): 13.6 µM (inactive)
- GI50 (DMS-114): 10.4 µM (inactive)
- GI50 (DMS-273): 12.1 µM (inactive)
- GI50 (EKVX): 26.5 µM (inactive)
- GI50 (HCC 2998): 15.7 µM (inactive)
- GI50 (HCT-116): 10.6 µM (inactive)
- GI50 (HCT-15): 10.1 µM
- GI50 (HL-60): 2.98 µM (inactive)
- GI50 (HOP-18): 18.2 µM (inactive)
- GI50 (HOP-62): 18.7 µM (inactive)
- GI50 (HOP-92): 17.2 µM (inactive)
- GI50 (HT-29): 14.1 µM (inactive)
- GI50 (IGROV-1): 5.21 µM (inactive)
- GI50 (K562): 13.8 µM (inactive)
- GI50 (KM-20L2): 16.9 µM (inactive)
- GI50 (LXFL 529): 11.9 µM (inactive)
- GI50 (M14): 14.9 µM (inactive)
- GI50 (M19-MEL): 14.9 µM (inactive)
- GI50 (MOLT-4): 2.58 µM (inactive)
- GI50 (Malme-3M): 14.1 µM (inactive)
- GI50 (NCI-H226): 6.58 µM (inactive)
- GI50 (NCI-H23): 12.9 µM (inactive)
- GI50 (NCI-H522): 1.56 µM (inactive)
- GI50 (OVCAR-4): 11.9 µM (inactive)
- GI50 (OVCAR-8): 13.5 µM (inactive)
- GI50 (RPMI-8226): 10.3 µM (inactive)
- GI50 (RXF 393): 4.97 µM (inactive)
- GI50 (SF-268): 5.85 µM (inactive)
- GI50 (SF-295): 15.1 µM (inactive)
- GI50 (SF-539): 10.5 µM (inactive)
- GI50 (SK-MEL-28): 13.5 µM (inactive)
- GI50 (SK-MEL-5): 13.9 µM (inactive)
- GI50 (SK-OV-3): 14.6 µM (inactive)
- GI50 (SN12C): 11.2 µM (inactive)
- GI50 (SNB-19): 14.2 µM (inactive)
- GI50 (SNB-75): 11.5 µM (inactive)
- GI50 (SNB-78): 10.4 µM (inactive)
- GI50 (SR): 4.95 µM (inactive)
- GI50 (SW-620): 12.9 µM (inactive)
- GI50 (U-251): 5.74 µM (inactive)
- GI50 (UACC-257): 16.4 µM (inactive)
- GI50 (UACC-62): 11.3 µM (inactive)
- GI50 (UO-31): 2.59 µM (inactive)

SMILES: O=S1(=O)NN=C(NCc2ccc(F)cc2)c2ccccc21
- GI50 (786-0): > 50.9 µM (inactive)
- GI50 (A498): > 100 µM (inactive)
- GI50 (A549): > 90.2 µM (inactive)
- GI50 (ACHN): 95.5 µM (inactive)
- GI50 (BT-549): 67.5 µM (inactive)
- GI50 (CAKI-1): > 89.5 µM (inactive)
- GI50 (CCRF-CEM): 23.7 µM (inactive)
- GI50 (COLO 205): > 76.4 µM (inactive)
- GI50 (DLD-1): 58.5 µM (inactive)
- GI50 (DMS-273): 47.1 µM (inactive)
- GI50 (DU-145): > 100 µM (inactive)
- GI50 (EKVX): > 100 µM (inactive)
- GI50 (HCC 2998): > 67.6 µM (inactive)
- GI50 (HCT-116): > 100 µM (inactive)
- GI50 (HCT-15): > 64.1 µM
- GI50 (HL-60): 13.1 µM (inactive)
- GI50 (HOP-62): 39.6 µM (inactive)
- GI50 (HOP-92): 24.7 µM (inactive)
- GI50 (HT-29): > 63.1 µM (inactive)
- GI50 (Hs-578T): 17.5 µM (inactive)
- GI50 (IGROV-1): > 72.4 µM (inactive)
- GI50 (K562): 21 µM (inactive)
- GI50 (KM-20L2): > 100 µM (inactive)
- GI50 (KM12): > 100 µM (inactive)
- GI50 (LOX IMVI): 36.3 µM (inactive)
- GI50 (LXFL 529): 27.7 µM (inactive)
- GI50 (M14): > 50.9 µM (inactive)
- GI50 (M19-MEL): 40.4 µM (inactive)
- GI50 (MCF7): > 100 µM (inactive)
- GI50 (MDA-MB-231): > 100 µM (inactive)
- GI50 (MDA-MB-435): > 100 µM (inactive)
- GI50 (MDA-N): > 100 µM (inactive)
- GI50 (MOLT-4): > 36 µM (inactive)
- GI50 (Malme-3M): > 89.3 µM (inactive)
- GI50 (NCI-H226): > 100 µM (inactive)
- GI50 (NCI-H23): > 100 µM (inactive)
- GI50 (NCI-H460): > 31.6 µM (inactive)
- GI50 (NCI/ADR-RES): 65.2 µM (inactive)
- GI50 (OVCAR-3): 67.5 µM (inactive)
- GI50 (OVCAR-4): > 48 µM (inactive)
- GI50 (OVCAR-5): > 100 µM (inactive)
- GI50 (OVCAR-8): > 94.2 µM (inactive)
- GI50 (RPMI-8226): > 40.7 µM (inactive)
- GI50 (RXF 393): 34.9 µM (inactive)
- GI50 (SF-268): > 100 µM (inactive)
- GI50 (SF-295): > 71.9 µM (inactive)
- GI50 (SF-539): > 85.5 µM (inactive)
- GI50 (SK-MEL-28): > 100 µM (inactive)
- GI50 (SK-MEL-2): > 100 µM (inactive)
- GI50 (SK-MEL-5): > 68.2 µM (inactive)
- GI50 (SK-OV-3): 50.6 µM (inactive)
- GI50 (SN12C): > 100 µM (inactive)
- GI50 (SNB-19): 39.3 µM (inactive)
- GI50 (SNB-78): 55.6 µM (inactive)
- GI50 (SR): > 44.7 µM (inactive)
- GI50 (SW-620): > 79.3 µM (inactive)
- GI50 (T47D): > 100 µM (inactive)
- GI50 (U-251): 33 µM (inactive)
- GI50 (UACC-257): 69.2 µM (inactive)
- GI50 (UACC-62): 34.7 µM (inactive)
- GI50 (UO-31): > 100 µM (inactive)
- GI50 (XF498): 65 µM (inactive)
